Measurements from patent US7723070B2, “Overexpression of aminoacyl-tRNA synthetases for efficient production of engineered proteins containing amino acid analogues” (California Institute of Technology, priority 2000, dated 2010).
“Also recorded” adds a separate entry of the source.

Tested on: E. coli strain CAG18491/pQE15/pREP4
Experiment: Translational activity: mDHFR synthesis in methionine-depleted cultures of conventional host
Type: cell-based
Details: for Protein Yield: mDHFR from 1-liter cultures supplemented with the analogue; for translational activity: capacity to support mDHFR synthesis in absence of methionine (SDS-PAGE): methionine-depleted minimal medium, IPTG induction; for mDHFR produced relative to cultures supplemented with methionine: control yield = methionine
Description: Buffers and media were prepared according to standard protocols (Sambrook, J.; Fritsch, E. F.; Maniatis, T. Molecular Cloning: A Laboratory Manual, 2nd Ed. Cold Spring Harbor Laboratory Press, Cold Spring Harbor, N.Y. 1989; Ausubel, F. M.; Brent, K.; Kingston, K. E.; Moore, D. D.; Scidman, J. G.; Smith, J. A.; Struhl, K. Current Protocols in Molecular Biology, John Wiley & Sons, NY 1995). The E. coli methionine auxotroph CAG18491 (λ^−, rph-1, metE3079.:Tn10) (obtained from the Yale E. coli Genetic Stock Center), was transformed with plasmids pREP4 and pQE15 (Qiagen, Valencia, Calif.), to obtain the expression host CAG18491/pQE15/pREP4.
M9AA medium (50 mL) supplemented with 1 mM MgSO4, 0.2 wt % glucose, 1 mg/L thiamine chloride and the antibiotics ampicillin (200 mg/L) and kanamycin (25 mg/L) was inoculated with 2 mL of an overnight culture of CAG18491/pQE15/pREP4. When the turbidity of the culture reached an optical density at 600 nm (OD600) of 0.8, a medium shift was performed. The cells were sedimented for 10 min at 3030 g at 4° C., the supernatant was removed, and the cell pellet was washed twice with 20 mL of M9 medium. Cells were resuspended in 50 mL of the M9AA medium described above, without methionine. […] (0.31 mM), respectively. A culture lacking methionine (or any analogue) served as the negative control. Protein expression was induced by addition of isopropyl-β-D-thiogalactopyranoside (IPTG) to a final concentration of 0.4 mM. Samples were taken every hour for 4 h, the OD600 was measured, and the samples were sedimented. After the supernatant was decanted, the cell pellets were resuspended, in 20 μL distilled H2O.
Protein expression was monitored by SDS polyacrylamide gel electrophoresis (12% acrylamide running gel, 12 mA, 14 h), using a normalized OD600 of 0.2 per sample.
The example presented is for medium supplemented with 3. M9AA medium (100 mL) supplemented with 1 mM MgSO4 0.2 wt % glucose, 1 mg/L thiamine chloride and the antibiotics ampicillin (200 mg/L) and kanamycin (25 mg/L) was inoculated with E. coli strain CAG18491/pQE15/pREP4 and grown overnight at 37° C. This culture was used to inoculate 900 mL M9AA medium supplemented as described. The cells were grown to an OD600 of 0.94 and the medium shift was performed as described for the small scale experiments, followed by addition of 40 mL of 1 mg/mL DL-homopropargylglycine (3). IPTG (0.4 mM) was added, and samples were taken at 1 hour intervals. OD600 was measured, the samples were sedimented and decanted, and the cell pellets were resuspended in 20 μL distilled H2O. Protein expression was monitored by SDS polyacrylamide gel electrophoresis (12% acrylamide running gel, 12 mA, 15 h).
Approximately 4.5 h after induction, cells were sedimented (9,800 g, 10 min, 4° C.) and the supernatant was removed. The pellet was placed in the freezer overnight. The cells were thawed for 30 min at 37° C., 30 mL of buffer (6 M guanidine-HCl, 0.1 M NaH2PO4, 0.01 M Tris, pH 8) was added and the mixture was shaken at room temperature for 1 h. […] The supernatant was loaded on 10 mL of resin which was then washed with 50 mL of guanidine buffer followed by 25 mL of urea buffer (8 M urea, 0.1 M NaH2PO4 and 0.01 M Tris, pH 8). Similar urea buffers were used for three successive 25 mL washes at pH values of 6.3, 5.9 and 4.5, respectively. […] These washes were combined and dialyzed (Spectra/Por membrane 1, MWCO=6-8 kDa) against running distilled water for 4 days, followed by batchwise dialysis against doubly distilled water for one day. […] Amino acid analyses, electrospray mass spectrometry and N-terminal protein sequencing was performed on the mDHFR isolated.

Compound | Protein Yield [mg/L] | translational activity: capacity to support mDHFR synthesis in absence of methionine (SDS-PAGE) | mDHFR produced relative to cultures supplemented with methionine | substitution/replacement of methionine by analogue (1H NMR, amino acid analysis, N-terminal sequencing together) (mDHFR)
C/C=C/CC(N)C(=O)O (racemic) [Analogue 5, trans-2-amino-4-hexenoic acid] | 0 | neither 5 or 11 support measurable protein synthesis; also recorded: prevented incorporation; also recorded: neither 4 nor 5 were indicated to be translationally active; also recorded: did not support measurable levels of protein synthesis | – | –
CCC[C@H](N)C(=O)O [Analogue 8, L-norvaline] | – | neither norvaline (8) nor 7 showed translational activity | – | –
CSCC[C@H](N)C(=O)O [Analogue 1, L-methionine, reference compound] | 35 | can be detected | – | –
C#CCCC(N)C(=O)O (racemic) [Analogue 3, DL-homopropargylglycine] | 35 | exhibit translational activity sufficient to allow protein synthesis; also recorded: serve effectively as methionine surrogates; also recorded: can be detected | equivalent | near-quantitative replacement of methionine
2-butynylglycine [Analogue 11] | 0 | neither 5 or 11 support measurable protein synthesis; also recorded: not detected; also recorded: did not support measurable levels of protein synthesis | – | –
CCCCCC(N)C(=O)O (racemic) [Analogue 7, DL-2-aminoheptanoic acid] | – | neither norvaline (8) nor 7 showed translational activity | – | –
CCCC[C@H](N)C(=O)O [Analogue 9, L-norleucine] | 20 | confirmed; also recorded: does support protein synthesis; also recorded: can be detected | 57% | –
C/C=C\CC(N)C(=O)O (racemic) [Analogue 4, cis-2-amino-4-hexenoic acid] | – | prevented incorporation; also recorded: neither 4 nor 5 were indicated to be translationally active | – | –
C=CCCC(N)C(=O)O (racemic) [Analogue 2, DL-2-amino-5-hexenoic acid] | 10 | exhibit translational activity sufficient to allow protein synthesis; also recorded: serve effectively as methionine surrogates; also recorded: can be detected | 28% | –
